Measured values as given in patent publication US8945929B2, “Marker for determination of sensitivity to anti-cancer agent” (Keio University, priority 2008, dated 2015).
Counter-ions that a name gives are not always drawn.

How the values were obtained:
[1] = system: cultured human colorectal cancer cells, HCT-116; assay: Tumor size in nude mice with subcutaneously transplanted HCT-116 cells; format: in vivo, nude mice (BALB/cAJcl-nu/nu); settings: 7 days after the administration
Protocol: (§1) Six-week-old, male nude mice (BALB/cAJcl-nu/nu) purchased from CLEA Japan, Inc. were used and allowed to ingest a general feed and drink water freely in a thermostatic chamber. A protocol following the animal experiment guideline in School of Medicine, Keio University was applied and then approved. Then, this examination was carried out humanely.
(§2) CAMPTO™ as a preparation of CPT-11 and a solvent for dissolving Campto (hereinafter, referred to as “solvent”) were obtained from Yakult Honsha, Co., Ltd.
(§3) After the transplantation, a tumor size was measured by using the following formula: (longer tumor diameter)×(shorter tumor diameter)^2/2. When the tumor size reached 300 to 400 mm^3, the mice were randomly assigned to a CPT-11 administration group and a solvent administration group (a CPT-11 non-administration group). The day when the mice were assigned to two groups was defined as day 0. CAMPTO™ as a preparation of CPT-11 in an amount of 4.5 mL/kg (90 mg/kg as CPT-11 amount) and the solvent for dissolving CAMPTO™ (D-sorbitol, lactic acid, pH adjuster) were administered slowly to the CPT-11 administration group and a CPT-11 non-administration group, respectively, from the tail vein. The tumor size was measured on day 0, and 12 hours, 24 hours, 72 hours, and 7 days after the administration. The blood was collected after the dissection. After the centrifugation of the collected blood at 10,000 rpm for 10 minutes, a serum fraction was frozen with liquid nitrogen and stored at −80° C. until the serum fraction was used in preparation of a sample for metabolome analysis. As a control group, a cancer cell-non-transplanted group was produced and the same treatment was carried out.
(§4) After the transplantation, a tumor size was measured by using the following formula: (longer tumor diameter)×(shorter tumor diameter)^2/2. When the tumor size reached 300 to 400 mm^3, the mice were randomly assigned to a CPT-11 administration group and a solvent administration group. The tumor size was measured on day 0, and 12 hours, 24 hours, 72 hours, and 7 days after the administration. […]

[2] = system: cultured human colorectal cancer cells, HT-29; assay: Tumor size in nude mice with subcutaneously transplanted HT-29 cells; format: in vivo, nude mice (BALB/cAJcl-nu/nu); settings: conclusion from tumor size, 7 days after the administration
Protocol: as §1, §2
as §4, with “group (a CPT-11 non-administration group). The day when the mice were assigned to two groups was defined as day 0. […]” for “group.”
After the transplantation, a tumor size was measured by using the following formula: (longer tumor diameter)×(shorter tumor diameter)^2/2. […] The tumor size was measured on day 0, and 12 hours, 24 hours, 72 hours, and 7 days after the administration. […]

[3] = system: cultured human colorectal cancer cells, HCT-116; assay: Serum metabolome (CE-TOFMS) of HCT-116 cancer-bearing mice after CPT-11; format: in vivo, nude mice (BALB/cAJcl-nu/nu); settings: HCT-116 transplanted, 90 mg/kg as CPT-11
Protocol: as §3, with “After the centrifugation of the collected blood at 10,000 rpm for 10 minutes, a serum fraction was frozen with liquid nitrogen and stored at −80° C. until the serum fraction was used in preparation of a sample for metabolome analysis. As a control group, a cancer cell-non-transplanted group was produced and the same treatment was carried out.” left out
(§5) The comprehensive measurement of the metabolites in a serum was carried out by using a capillary electrophoresis time-of-flight mass spectrometry (CE-TOFMS) system manufactured by Agilent Technologies, Inc. In this examination, a voltage was applied such that an output of the capillary was a cathode, and cationic metabolites were comprehensively measured. […]

[4] = system: cultured human colorectal cancer cells, HT-29; assay: Serum metabolome (CE-TOFMS) of HT-29 cancer-bearing mice after CPT-11; format: in vivo, nude mice (BALB/cAJcl-nu/nu); settings: HT-29 transplanted, 90 mg/kg as CPT-11
Protocol: as §3, with “After the centrifugation of the collected blood at 10,000 rpm for 10 minutes, a serum fraction was frozen with liquid nitrogen and stored at −80° C. until the serum fraction was used in preparation of a sample for metabolome analysis. As a control group, a cancer cell-non-transplanted group was produced and the same treatment was carried out.” left out
as §5

[5] = system: cultured human colorectal cancer cells, HCT-116; settings: HCT-116, as obtained from Yakult Honsha; cited from earlier work
[6] = system: cultured human colorectal cancer cells, HT-29; settings: HT-29, as obtained from Yakult Honsha; cited from earlier work
[7] = background statement; cited from earlier work
[8] = 12 hours after the administration
[9] = 24 hours after the administration

## CCc1c2c(nc3ccc(OC(=O)N4CCC(N5CCCCC5)CC4)cc13)-c1cc3c(c(=O)n1C2)COC(=O)[C@]3(O)CC [CPT-11, Irinotecan hydrochloride]
[1]; 90 mg/kg as CPT-11, tail vein
  tumor size, CPT-11 group with HCT-116 vs CPT-11 group with HT-29: significant difference (p=0.04979)
[1]; HCT-116 transplanted, 90 mg/kg as CPT-11, tail vein
  tumor size, CPT-11 administration group vs solvent administration group: significant difference (p=0.01319)
[1]; conclusion from tumor size
  sensitivity of HCT-116 to CPT-11 compared to HT-29: high sensitivity
[2]
  sensitivity of HT-29 to CPT-11 compared to HCT-116: low sensitivity
[3]; [8]
  serum expression level of peak at m/z 104.070 (N,N-dimethyl glycine), CPT-11 administration group: decreased to the same level as in the control group
[3]; [9]
  serum expression level of peak at m/z 166.086 (L-phenylalanine), CPT-11 administration group: decreased to the same level as in the control group
[4]; [8]
  serum expression level of peak at m/z 104.070 (N,N-dimethyl glycine), CPT-11 group vs solvent group: the same level
[4]; [9]
  serum expression level of peak at m/z 166.086 (L-phenylalanine), CPT-11 group vs solvent group: the same level

## CCc1c2c(nc3ccc(O)cc13)-c1cc3c(c(=O)n1C2)COC(=O)[C@]3(O)CC [SN-38, 7-ethyl-10-hydroxycamptothecin]
[5]
  sensitivity of cells to SN-38: high sensitivity
[6]
  sensitivity of cells to SN-38: low sensitivity

## CCc1c2c(nc3ccc(O[C@@H]4O[C@H](C(=O)O)[C@@H](O)[C@H](O)[C@H]4O)cc13)-c1cc3c(c(=O)n1C2)COC(=O)[C@]3(O)CC [SN-38G]
[7]
  cytotoxicity: no cytotoxicity
